{
  "source": "patent US6350775B1",
  "about": "“3-phenyl-furan-(5H)-2-one and dihydrofuran-2-one derivatives as antibacterial agents” (priority 1996, dated 2002)",
  "format_in_all_cases": "cell-based",
  "key": {"[1]": {"tested_on": "Staphylococcus aureus Oxford", "test": "MIC by agar-dilution, Staphylococcus aureus Oxford", "details": "10^4 CFU/spot, 37° C., 24 hours", "procedure": "(§1) The following results were obtained on a standard in vitro test system. The activity is described in terms of the minimum inhibitory concentration (MIC) determined by the agar-dilution technique with an inoculum size of 10^4 CFU/spot. Staphylococci were tested on agar, using an inoculum of 10^4 CFU/spot and an incubation temperature of 37° C. for 24 hours—standard test conditions for the expression of methicillin resistance."}, "[2]": {"tested_on": "Staphylococcus aureus Novb. Res (Novobiocin resistant)", "test": "MIC by agar-dilution, Staphylococcus aureus Novb. Res", "details": "10^4 CFU/spot, 37° C., 24 hours", "procedure": "as §1"}, "[3]": {"tested_on": "Staphylococcus aureus MRQS (methicillin resistant quinolone sensitive)", "test": "MIC by agar-dilution, Staphylococcus aureus MRQS", "details": "10^4 CFU/spot, 37° C., 24 hours", "procedure": "as §1"}, "[4]": {"tested_on": "Staphylococcus aureus MRQR (methicillin resistant quinolone resistant)", "test": "MIC by agar-dilution, Staphylococcus aureus MRQR", "details": "10^4 CFU/spot, 37° C., 24 hours", "procedure": "as §1"}, "[5]": {"tested_on": "Coagulase Negative Staphylococcis MS", "test": "MIC by agar-dilution, Coagulase Negative Staphylococci MS", "details": "10^4 CFU/spot, 37° C., 24 hours", "procedure": "as §1"}, "[6]": {"tested_on": "Coagulase Negative Staphylococcis MR (methicillin resistant)", "test": "MIC by agar-dilution, Coagulase Negative Staphylococci MR", "details": "10^4 CFU/spot, 37° C., 24 hours", "procedure": "as §1"}, "[7]": {"tested_on": "Streptococcus pyogenes C203", "test": "MIC by agar-dilution, Streptococcus pyogenes C203", "details": "agar with 5% defibrinated horse blood, 10^4 CFU/spot, 37° C., 5% carbon dioxide, 48 hours", "procedure": "as §1\n(§2) Streptococci and enterococci were tested on agar supplemented with 5% defibrinated horse blood, an inoculum of 10^4 CFU/spot and an incubation temperature of 37° C. in an atmosphere of 5% carbon dioxide for 48 hours—blood is required for the growth of some of the test organisms."}, "[8]": {"tested_on": "Enterococcus faecalis", "test": "MIC by agar-dilution, Enterococcus faecalis", "details": "agar with 5% defibrinated horse blood, 10^4 CFU/spot, 37° C., 5% carbon dioxide, 48 hours", "procedure": "as §1, §2"}, "[9]": {"tested_on": "Bacillus subtilis", "test": "MIC by agar-dilution, Bacillus subtilis", "details": "10^4 CFU/spot", "procedure": "as §1"}},
  "data": [
    {"smiles": "CC(=O)NC[C@H]1CC(c2ccc(C3=CCN(C(=O)CO)CC3)cc2)C(=O)O1", "note": "(stereo partly drawn) [Example 5, 5R,3RS-5-Acetamidomethyl-3-(4-[1-hydroxyacetyl-1,2,5,6-tetrahydropyrid-4-yl]phenyl)dihydrofuran-2(3H)-one]", "values": [
      {"measurement": "MIC", "setting": "[1]", "result": 4.0, "unit": "µg/mL"},
      {"measurement": "MIC", "setting": "[2]", "result": 4.0, "unit": "µg/mL"},
      {"measurement": "MIC", "setting": "[3]", "result": 4.0, "unit": "µg/mL"},
      {"measurement": "MIC", "setting": "[4]", "result": 8.0, "unit": "µg/mL"},
      {"measurement": "MIC", "setting": "[5]", "result": 2.0, "unit": "µg/mL"},
      {"measurement": "MIC", "setting": "[6]", "result": 4.0, "unit": "µg/mL"},
      {"measurement": "MIC", "setting": "[7]", "result": 8.0, "unit": "µg/mL"},
      {"measurement": "MIC", "setting": "[8]", "result": 8.0, "unit": "µg/mL"},
      {"measurement": "MIC", "setting": "[9]", "result": 4.0, "unit": "µg/mL"}
    ]}
  ]
}
